Laboratory results as given in patent US6750235B1, “Pramipexole as a treatment for cocaine craving” (The General Hospital Corporation, priority 1999, dated 2004).

Assay: Case report: treatment of cocaine craving using pramipexole (patient)
Assay type: in vivo, human
Conditions: one patient; lamotrigine up to 200 mg, before pramipexole was added

Nc1nnc(-c2cccc(Cl)c2Cl)c(N)n1 [lamotrigine]
mood (depression): modest improvement
